Reference: ChEMBL document CHEMBL4831520, “Discovery of First-in-Class Dual PARP and EZH2 Inhibitors for Triple-Negative Breast Cancer with Wild-Type BRCA” (J Med Chem, 2021)

How the values were obtained:
MDA-MB-231 = assay: cells; format: functional, cell-based; details: Homo sapiens, MDA-MB-231, 72 h
Description: Antiproliferative activity against human MDA-MB-231 cells assessed as cell viability after 72 hrs by MTT assay

MDA-MB-468 = assay: cells; format: functional, cell-based; details: Homo sapiens, MDA-MB-468, 72 h
Description: Antiproliferative activity against human MDA-MB-468 cells assessed as cell viability after 72 hrs by MTT assay

MCF7 = assay: cells; format: functional, cell-based; details: Homo sapiens, MCF7, 72 h
Description: Antiproliferative activity against human MCF7 cells assessed as cell viability after 72 hrs by MTT assay

MCF-10A = assay: cells; format: ADME, cell-based; details: Homo sapiens, 72 h
Description: Antiproliferative activity against human MCF-10A cells assessed as cell viability after 72 hrs by MTT assay

[1] = target: T1, Histone-lysine N-methyltransferase EZH2 (Homo sapiens, UniProt Q15910)
Target sequence in this assay (Q15910 whole entry): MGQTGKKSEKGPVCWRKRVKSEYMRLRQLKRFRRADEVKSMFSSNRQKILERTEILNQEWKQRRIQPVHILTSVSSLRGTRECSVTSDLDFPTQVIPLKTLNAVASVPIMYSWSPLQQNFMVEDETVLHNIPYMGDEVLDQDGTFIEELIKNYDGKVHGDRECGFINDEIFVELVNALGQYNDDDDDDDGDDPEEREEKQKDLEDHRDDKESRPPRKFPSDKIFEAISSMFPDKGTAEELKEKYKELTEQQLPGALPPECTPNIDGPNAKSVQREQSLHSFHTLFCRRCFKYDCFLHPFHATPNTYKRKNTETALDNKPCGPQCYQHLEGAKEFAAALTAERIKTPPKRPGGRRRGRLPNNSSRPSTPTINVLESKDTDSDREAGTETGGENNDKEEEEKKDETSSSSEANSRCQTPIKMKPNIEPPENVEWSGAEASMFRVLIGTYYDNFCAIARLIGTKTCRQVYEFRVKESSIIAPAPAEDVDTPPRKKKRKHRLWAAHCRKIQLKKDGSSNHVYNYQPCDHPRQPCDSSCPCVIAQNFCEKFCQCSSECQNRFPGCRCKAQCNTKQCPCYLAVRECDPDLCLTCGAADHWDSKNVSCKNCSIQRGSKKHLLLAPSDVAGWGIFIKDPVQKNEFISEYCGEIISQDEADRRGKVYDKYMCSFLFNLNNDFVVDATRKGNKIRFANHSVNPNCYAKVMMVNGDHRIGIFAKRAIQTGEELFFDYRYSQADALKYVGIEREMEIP
Description: Inhibition of recombinant PRC2 complex (unknown origin) assessed as dissociation rate constant using H3K27me0 peptide substrate incubated for 3 hrs by HMT assay

[2] = target: T1, Histone-lysine N-methyltransferase EZH2; remark: listed apart in the source
Target sequence in this assay (Q15910 whole entry): as above
Description: Inhibition of recombinant PRC2 complex (unknown origin) assessed as kd/ka using H3K27me0 peptide substrate incubated for 3 hrs by HMT assay

[3] = target: T1, Histone-lysine N-methyltransferase EZH2; details: time 3.0 hrs
Target sequence in this assay (Q15910 whole entry, looked up): as the sequence (Q15910 whole entry) above

[4] = target: T1, Histone-lysine N-methyltransferase EZH2; remark: listed apart in the source
Target sequence in this assay (Q15910 whole entry): as above

SMILES	IC50 (MDA-MB-231)	IC50 (MDA-MB-468)	IC50 (MCF7)	IC50 (MCF-10A)	Kd [1]	Kd [2]	Ka [3]	IC50 [4]
Cc1cc(C)c(CNC(=O)c2cc(-c3ccc(N4CCN(C(=O)c5cc(Cc6n[nH]c(=O)c7ccccc67)ccc5F)CC4)nc3)cc(N(C)C)c2C)c(=O)[nH]1	23.2 µM	15.2 µM	38 µM	> 50 µM				
Cc1cc(C)c(CNC(=O)c2cc(-c3ccc(N4CCN(C(=O)c5cc(Cc6n[nH]c(=O)c7ccccc67)ccc5F)CC4)nc3)cc(NC(C)C)c2C)c(=O)[nH]1	> 50 µM	16.5 µM	> 50 µM	> 50 µM				
C=C(C)C(=O)N(CC)c1cc(-c2ccc(N3CCN(C(=O)c4cc(Cc5n[nH]c(=O)c6ccccc56)ccc4F)CC3)nc2)cc(C(=O)NCc2c(C)cc(C)[nH]c2=O)c1C	8.73 µM	2.78 µM	21.2 µM	> 50 µM	0.04302 s⁻¹	38.77 s⁻¹	1.11 10^6/M/s	
Cc1cc(C)c(CNC(=O)c2cc(-c3ccc(N4CCN(C(=O)c5cc(Cc6n[nH]c(=O)c7ccccc67)ccc5F)CC4)nc3)cc(NC(=O)CC(C)C)c2C)c(=O)[nH]1	9.42 µM	0.76 µM	20 µM	> 50 µM	0.1116 s⁻¹	25.46 s⁻¹	4.54 10^6/M/s	
CCN(C(C)=O)c1cc(-c2ccc(N3CCN(C(=O)c4cc(Cc5n[nH]c(=O)c6ccccc56)ccc4F)CC3)nc2)cc(C(=O)NCc2c(C)cc(C)[nH]c2=O)c1C	18.4 µM	9.56 µM	26.2 µM	> 50 µM				
Cc1cc(C)c(CNC(=O)c2cc(-c3ccc(N4CCN(C(=O)c5cc(Cc6n[nH]c(=O)c7ccccc67)ccc5F)CC4)nc3)cc3c2cnn3C(=O)N(C)C)c(=O)[nH]1	> 50 µM	> 50 µM	> 50 µM	> 50 µM				
Cc1cc(C)c(CNC(=O)c2cc(-c3ccc(N4CCN(C(=O)c5cc(Cc6n[nH]c(=O)c7ccccc67)ccc5F)CC4)nc3)cc([N+](=O)[O-])c2C)c(=O)[nH]1	> 50 µM	> 50 µM	> 50 µM	> 50 µM				
Cc1cc(C)c(CNC(=O)c2cc(-c3ccc(N4CCN(C(=O)c5cc(Cc6n[nH]c(=O)c7ccccc67)ccc5F)CC4)nc3)cc(N)c2C)c(=O)[nH]1	1920 µM	12.1 µM	37.4 µM	> 50 µM				
C=C(C)C(=O)Nc1cc(-c2ccc(N3CCN(C(=O)c4cc(Cc5n[nH]c(=O)c6ccccc56)ccc4F)CC3)nc2)cc(C(=O)NCc2c(C)cc(C)[nH]c2=O)c1C	17.9 µM	2.21 µM	30.1 µM	> 50 µM				
Cc1cc(C)c(CNC(=O)c2cc(-c3ccc(N4CCN(C(=O)c5cc(Cc6n[nH]c(=O)c7ccccc67)ccc5F)CC4)nc3)cc3c2cnn3C(C)C)c(=O)[nH]1	25.8 µM	17.9 µM	40.2 µM	> 50 µM				
C=CCn1ncc2c(C(=O)NCc3c(C)cc(C)[nH]c3=O)cc(-c3ccc(N4CCN(C(=O)c5cc(Cc6n[nH]c(=O)c7ccccc67)ccc5F)CC4)nc3)cc21	> 50 µM	> 50 µM	> 50 µM	> 50 µM				
COc1cc(C)c(C(=O)NCc2c(C)cc(C)[nH]c2=O)cc1-c1ccc(N2CCN(C(=O)c3cc(Cc4n[nH]c(=O)c5ccccc45)ccc3F)CC2)nc1	26.1 µM	1940 µM	44.2 µM	> 50 µM				
Cc1cc(C)c(CNC(=O)c2cccc(-c3ccc(N4CCN(C(=O)c5cc(Cc6n[nH]c(=O)c7ccccc67)ccc5F)CC4)nc3)c2)c(=O)[nH]1	25 µM	29.7 µM	48.4 µM	> 50 µM				
CCn1ccc2c(C(=O)NCc3c(C)cc(C)[nH]c3=O)cc(-c3ccc(N4CCN(C(=O)c5cc(Cc6n[nH]c(=O)c7ccccc67)ccc5F)CC4)nc3)cc21	> 50 µM	> 50 µM	> 50 µM	> 50 µM				
Cc1cc(C)c(CNC(=O)c2cc(-c3ccc(N4CCN(C(=O)c5cc(Cc6n[nH]c(=O)c7ccccc67)ccc5F)CC4)nc3)cc3c2cnn3C)c(=O)[nH]1	> 50 µM	> 50 µM	> 50 µM	> 50 µM				
CCN(c1cc(-c2ccc(N3CCN(C(=O)c4cc(Cc5n[nH]c(=O)c6ccccc56)ccc4F)CC3)nc2)cc(C(=O)NCc2c(C)cc(C)[nH]c2=O)c1C)C1CCOCC1	> 50 µM	> 50 µM	> 50 µM	> 50 µM				

SMILES	IC50 (MDA-MB-231)	IC50 (MDA-MB-468)	IC50 (MCF7)	IC50 (MCF-10A)	Kd [1]	Kd [2]	Ka [3]	IC50 [4]
Cc1cc(C)c(CNC(=O)c2cc(-c3ccc(N4CCN(C(=O)c5cc(Cc6n[nH]c(=O)c7ccccc67)ccc5F)CC4)nc3)cc3c2ccn3C(C)C)c(=O)[nH]1	33.5 µM	21.6 µM	47.5 µM	> 50 µM				
CNc1cc(-c2ccc(N3CCN(C(=O)c4cc(Cc5n[nH]c(=O)c6ccccc56)ccc4F)CC3)nc2)cc(C(=O)NCc2c(C)cc(C)[nH]c2=O)c1C	46 µM	17.3 µM	> 50 µM	> 50 µM				
CCCC(=O)Nc1cc(-c2ccc(N3CCN(C(=O)c4cc(Cc5n[nH]c(=O)c6ccccc56)ccc4F)CC3)nc2)cc(C(=O)NCc2c(C)cc(C)[nH]c2=O)c1C	26.1 µM	3.89 µM	33.2 µM	> 50 µM				
Cc1cc(C(=O)NCc2c(C)cc(C)[nH]c2=O)cc(-c2ccc(N3CCN(C(=O)c4cc(Cc5n[nH]c(=O)c6ccccc56)ccc4F)CC3)nc2)c1	> 50 µM	32.5 µM	> 50 µM	> 50 µM				
CC(=O)Nc1cc(-c2ccc(N3CCN(C(=O)c4cc(Cc5n[nH]c(=O)c6ccccc56)ccc4F)CC3)nc2)cc(C(=O)NCc2c(C)cc(C)[nH]c2=O)c1C	2.63 µM	0.41 µM	12.1 µM	> 50 µM	0.01586 s⁻¹	14.56 s⁻¹	1.09 10^6/M/s	36.5 nM
Cc1cc(C)c(CNC(=O)c2ccc(C)c(-c3ccc(N4CCN(C(=O)c5cc(Cc6n[nH]c(=O)c7ccccc67)ccc5F)CC4)nc3)c2)c(=O)[nH]1	> 50 µM	28.8 µM	> 50 µM	> 50 µM				
Cc1cc(C)c(CNC(=O)c2cc(-c3ccc(N4CCN(C(=O)c5cc(Cc6n[nH]c(=O)c7ccccc67)ccc5F)CC4)nc3)cc3c2ccn3C)c(=O)[nH]1	> 50 µM	> 50 µM	> 50 µM	> 50 µM				
Cc1cc(C)c(CNC(=O)c2cc(-c3ccc(N4CCN(C(=O)c5cc(Cc6n[nH]c(=O)c7ccccc67)ccc5F)CC4)nc3)cc(C(F)(F)F)c2)c(=O)[nH]1	43.4 µM	> 50 µM	> 50 µM	> 50 µM				
CC[C@H](C)n1nc(C)c2c(C(=O)NCc3c(C)cc(C)[nH]c3=O)cc(-c3ccc(N4CCNCC4)nc3)cc21	9.26 µM	9.97 µM	19.5 µM	> 50 µM	0.06934 s⁻¹	21.44 s⁻¹	3.23 10^6/M/s	10.8 nM
Cc1cc(C)c(CNC(=O)c2cc(-c3ccc(N4CCN(C(=O)c5cc(Cc6n[nH]c(=O)c7ccccc67)ccc5F)CC4)nc3)cc([N+](=O)[O-])c2)c(=O)[nH]1	> 50 µM	> 50 µM	> 50 µM	> 50 µM				
Cc1cc(C)c(CNC(=O)c2cc(-c3ccc(N4CCN(C(=O)c5cc(Cc6n[nH]c(=O)c7ccccc67)ccc5F)CC4)nc3)cc(NC(=O)CCC(=O)N(C)C)c2C)c(=O)[nH]1	22.1 µM	8.24 µM	30.4 µM	> 50 µM				
CCC(=O)N(CC)c1cc(-c2ccc(N3CCN(C(=O)c4cc(Cc5n[nH]c(=O)c6ccccc56)ccc4F)CC3)nc2)cc(C(=O)NCc2c(C)cc(C)[nH]c2=O)c1C	2.82 µM	2.11 µM	18.2 µM	> 50 µM	0.02027 s⁻¹	31.74 s⁻¹	6.39 10^5/M/s	
Cc1cc(C)c(CNC(=O)c2cc(-c3ccc(N4CCN(C(=O)c5cc(Cc6n[nH]c(=O)c7ccccc67)ccc5F)CC4)nc3)ccc2C)c(=O)[nH]1	30.2 µM	28.3 µM	> 50 µM	> 50 µM				
COC1CCN(C(=O)c2cc(Cc3n[nH]c(=O)c4ccccc34)ccc2F)CC1 [AZD2461]	36.9 µM	35.6 µM	> 50 µM	> 50 µM				
CCNc1cc(-c2ccc(N3CCN(C(=O)c4cc(Cc5n[nH]c(=O)c6ccccc56)ccc4F)CC3)nc2)cc(C(=O)NCc2c(C)cc(C)[nH]c2=O)c1C	32.3 µM	9.56 µM	> 50 µM	> 50 µM				
CCC(=O)Nc1cc(-c2ccc(N3CCN(C(=O)c4cc(Cc5n[nH]c(=O)c6ccccc56)ccc4F)CC3)nc2)cc(C(=O)NCc2c(C)cc(C)[nH]c2=O)c1C	8.72 µM	0.33 µM	17.7 µM	> 50 µM	0.09155 s⁻¹	18.37 s⁻¹	4.98 10^6/M/s	
